Results published in US20260274875A1, “[…] COMPOUNDS, PREPARATION METHOD AND USE THEREOF” (HC SYNTHETIC PHARMACEUTICAL CO., LTD., priority 2022, published 2026).
In brackets after ≈: the same amount, converted by molar mass. Where two headings read alike, the source gives them in different places.

Assays:
[1] = Solubility in water, methanol and isopropanol; type: physicochemical
Description: The solubility in water, methanol, and isopropanol of the compounds of the present disclosure and the comparative compounds were measured separately.

[2] = system: histamine-induced asthma in guinea pigs; test: Antiasthmatic effect on histamine-induced asthma in guinea pigs; type: in vivo, guinea pig; conditions: 60 min after 1 mg/kg oral gavage; histamine hydrochloride spray; no asthma within 8 min counted as 8 min; X ± s, n = 5
Description: The time point at which the guinea pigs developed asthma was recorded. The time of convulsion and fall was taken as the latency period. Guinea pigs with a latency period exceeding 180 seconds were not selected. […] The guinea pigs were administered by oral gavage at a dose of 2 mL/kg·bw. Sixty minutes after the administration, the guinea pigs were placed in bell jars, and histamine hydrochloride solution was sprayed under the same conditions as in the previous selection. The latency period for the onset of asthma was recorded. […] The results were processed statistically.

[3] = system: isolated ileal smooth muscle of guinea pigs; test: Muscle tone of isolated ileal smooth muscle of guinea pigs (compound alone); parameters: species or system guinea pig; conditions: 5 minutes after adding drug, no histamine; X ± s, n = 8
Description: (§1) The guinea pig was knocked unconscious with a wooden stick, and the abdomen was immediately dissected to separate the ileum about 15 cm in length. The contents of the intestinal segment were flushed with Tyrode's solution and placed in Tyrode's solution at a constant temperature of 37° C. for later use, and oxygen was supplied simultaneously. The experimental intestinal tract (1 cm in length) was cut and placed into 20 ml of Tyrode's solution at a constant temperature of 37° C. with a continuous oxygen supply. One end of the intestine was fixed on the ventilation hook and the other end was connected to the muscle tone transducer and led to the computer interface. The muscle tone value of the ileal smooth muscle was recorded with a BL system. The experiment was carried out after the intestinal segment contraction became stable. […] The operation was repeated 8 times. The antispasmodic percentage was calculated according to the following formula. [formula]

[4] = Accelerated stability test; type: physicochemical; conditions: 40° C.±2° C., RH 75%±5%
Description: The compound of the present disclosure was placed at a temperature of 40° C.±2° C. and a relative humidity of 75%±5% for 6 months, and samples were taken to determine for the descriptions, related substances, and contents.

[5] = system: histamine-contracted isolated ileal smooth muscle of guinea pigs; test: Muscle tone of isolated ileal smooth muscle of guinea pigs contracted with histamine; parameters: species or system guinea pig; conditions: 3 minutes after adding 0.05 mL compound to histamine-contracted ileum; x ± s, n = 8
Description: as §1, with “using” for “according to”, “equation.” for “formula. [formula]”

[6] = organic solvent or mixture, solvent isopropanol, read-out: Solubility, Isopropanol
[7] = organic solvent or mixture, solvent methanol, read-out: Solubility, Methanol
[8] = water, solvent water, read-out: Solubility, Water
[9] = methanol, organic solvent or mixture, solvent methanol, read-out: Solubility, Methanol
[10] = isopropanol, organic solvent or mixture, solvent isopropanol, read-out: Solubility, Isopropanol

Row | solubility [1, 8] [mg/mL] | solubility [1, 9] [mg/mL] | solubility [1, 10] [mg/mL] | SMILES | other results
1 | 30 (≈ 66.8 mM) | 40 (≈ 89.1 mM) | – | O=P(O)(O)OCCCN1CCC(=C2c3ccc(Cl)cc3CCc3cccnc32)CC1 [Compound III-7] | –
2 | 30 (≈ 69.4 mM) | 40 (≈ 92.5 mM) | 22 (≈ 50.9 mM) | O=P(O)(O)OCCCN1CCC(=C2c3ccc(F)cc3CCc3cccnc32)CC1 [Compound III-8] | Post-administration latency period [2]: 370.94 ± 50.29 s
3 | 30 (≈ 60.8 mM) | 40 (≈ 81.1 mM) | 22 (≈ 44.6 mM) | O=P(O)(O)OCCCN1CCC(=C2c3ccc(Br)cc3CCc3cccnc32)CC1 [Compound III-9] | –
4 | 30 (≈ 64.8 mM) | 43 (≈ 92.9 mM) | – | O=P(O)(O)OCCCCN1CCC(=C2c3ccc(Cl)cc3CCc3cccnc32)CC1 [Compound III-10] | Antispasmodic percentage (%) [3]: 35.75 ± 19.99%
5 | 30 (≈ 67.2 mM) | 43 (≈ 96.3 mM) | 25 (≈ 56 mM) | O=P(O)(O)OCCCCN1CCC(=C2c3ccc(F)cc3CCc3cccnc32)CC1 [Compound III-11] | Antispasmodic percentage (%) [3]: 31.58 ± 18.30%
6 | 32 (≈ 63.1 mM) | 43 (≈ 84.8 mM) | 25 (≈ 49.3 mM) | O=P(O)(O)OCCCCN1CCC(=C2c3ccc(Br)cc3CCc3cccnc32)CC1 [Compound III-12] | –
7 | 32 (≈ 67.1 mM) | 44 (≈ 92.3 mM) | – | O=P(O)(O)OCCCCCN1CCC(=C2c3ccc(Cl)cc3CCc3cccnc32)CC1 [Compound III-13] | –
8 | 32 (≈ 69.5 mM) | 44 (≈ 95.6 mM) | 25 (≈ 54.3 mM) | O=P(O)(O)OCCCCCN1CCC(=C2c3ccc(F)cc3CCc3cccnc32)CC1 [Compound III-14] | Content ([4]; Month 2): 99.5%; Content ([4]; Month 3): 99.5%
9 | 32 (≈ 61.4 mM) | 44 (≈ 84.4 mM) | 25 (≈ 47.9 mM) | O=P(O)(O)OCCCCCN1CCC(=C2c3ccc(Br)cc3CCc3cccnc32)CC1 [Compound III-15] | –
10 | 30 (≈ 62.6 mM) | 42 (≈ 87.7 mM) | 25 (≈ 52.2 mM) | O=P(O)(O)OCOCCCN1CCC(=C2c3ccc(Cl)cc3CCc3cccnc32)CC1 [Compound III-17] | –
11 | 30 (≈ 60.9 mM) | 42 (≈ 85.2 mM) | 25 (≈ 50.7 mM) | O=P(O)(O)OCOCCCCN1CCC(=C2c3ccc(Cl)cc3CCc3cccnc32)CC1 [Compound III-18] | Content ([4]; Month 3): 99.5%
12 | 30 (≈ 59.2 mM) | 42 (≈ 82.8 mM) | 25 (≈ 49.3 mM) | O=P(O)(O)OCOCCCCCN1CCC(=C2c3ccc(Cl)cc3CCc3cccnc32)CC1 [Compound III-19] | –

The remaining lines, values behind:

Row | SMILES | solubility [1, 8] [mg/mL] | solubility [1, 9] [mg/mL] | solubility [1, 10] [mg/mL] | other results
13 | O=P(O)(O)OCCN1CCC(=C2c3ccc(Cl)cc3CCc3cccnc32)CC1 [Compound III-4] | 28 (≈ 64.4 mM) | – | – | solubility [1, 6]: 22 mg/mL (≈ 50.6 mM); solubility [1, 7]: 38 mg/mL (≈ 87.4 mM)
14 | O=P(O)(O)OCCN1CCC(=C2c3ccc(F)cc3CCc3cccnc32)CC1 [Compound III-5] | 28 (≈ 66.9 mM) | – | – | solubility [1, 6]: 22 mg/mL (≈ 52.6 mM); solubility [1, 7]: 40 mg/mL (≈ 95.6 mM)
15 | O=P(O)(O)OCCN1CCC(=C2c3ccc(Br)cc3CCc3cccnc32)CC1 [Compound III-6] | 28 (≈ 58.4 mM) | – | – | solubility [1, 6]: 22 mg/mL (≈ 45.9 mM); solubility [1, 7]: 40 mg/mL (≈ 83.5 mM)
16 | O=P([O-])([O-])OCN1CCC(=C2c3ccc(Cl)cc3CCc3cccnc32)CC1.[Na+].[Na+] [Compound IV-1] | 432 | 44 | – | –
17 | O=P([O-])([O-])OCCN1CCC(=C2c3ccc(Cl)cc3CCc3cccnc32)CC1.[K+].[K+] [Compound IV-2] | 389 | 23 | 1 | Content ([4]; Month 1): 99.6%; Content ([4]; Month 3): 99.5%
18 | O=P([O-])([O-])OCCCCN1CCC(=C2c3ccc(Cl)cc3CCc3cccnc32)CC1.[Na+].[Na+] [Compound IV-4] | – | 20 | 1 | Content ([4]; Month 1): 99.6%; Content ([4]; Month 2): 99.6%; Content ([4]; Month 3): 99.6%
19 | O=P(O)(O)OCCCCCN1CCC(=C2c3ccc(Cl)cc3CCc3cccnc32)CC1 [Compound IV-7] | – | – | – | Content ([4]; Month 3): 99.5%
20 | O=P(O)(O)OCOCCN1CCC(=C2c3ccc(Cl)cc3CCc3cccnc32)CC1 [Compound IV-8] | – | – | – | Smooth muscle tone (g) After administration [5]: 1.19 ± 0.28 g; Content ([4]; Month 3): 99.5%
21 | O=P([O-])([O-])OCOCCCN1CCC(=C2c3ccc(Cl)cc3CCc3cccnc32)CC1.[Na+].[Na+] [Compound IV-9] | 411 | 27 | 2 | Content ([4]; Month 1): 99.7%; Content ([4]; Month 2): 99.7%; Content ([4]; Month 3): 99.7%
22 | O=P([O-])([O-])OCOCCCCN1CCC(=C2c3ccc(Cl)cc3CCc3cccnc32)CC1.[Na+].[Na+] [Compound IV-10] | 401 | 27 | 2 | –
23 | O=P([O-])([O-])OCOCCCCCN1CCC(=C2c3ccc(Cl)cc3CCc3cccnc32)CC1.[Na+].[Na+] [Compound IV-11] | 390 | 27 | 2 | Smooth muscle tone (g) After administration [5]: 1.18 ± 0.28 g
24 | OCCCCCCN1CCC(=C2c3ccc(Cl)cc3CCc3cccnc32)CC1 [Hydroxyhexyl desloratadine, Hydroxyhexyl Desloratadine] | – | – | – | Antispasmodic percentage (%) [5]: 58.30 ± 14.11%
25 | OCCCCCN1CCC(=C2c3ccc(Cl)cc3CCc3cccnc32)CC1 [Hydroxypentyl desloratadine, Hydroxypentyl Desloratadine] | – | – | – | Antispasmodic percentage (%) [5]: 58.53 ± 12.34%
26 | OCCCN1CCC(=C2c3ccc(Cl)cc3CCc3cccnc32)CC1 [Hydroxypropyl desloratadine, Hydroxypropyl Desloratadine] | – | – | – | Antispasmodic percentage (%) [5]: 58.77 ± 13.82%
